Experiments:
mosquitoes [1] = assay: Mosquitoes tracking and locating a human with a fresh coating of DEET on the skin; type: in vivo; conditions: fresh coating of DEET mosquito repellent on skin
mosquitoes [2] = assay: Mosquito behaviour at decoy band with a DEET-filled ampoule; type: in vivo; conditions: only DEET used in ampoule of decoy band
Excerpt: Initially the scents are designed to attract the mosquitoes preferentially to the band 1. When the mosquito is nearing contact the DEET will interfere with the chemical sensors of the mosquito and they will use only infrared and visual cues. If she is close enough, within roughly three meters, she will be attracted to the dark pupil pattern 5 and infrared emissions on the band 1 and at close range land on the border area 3 of red or pink and the white area 4 of the decoy. If not close enough for visual cues she may then wander off with some dose of DEET to hamper her long-range ability to find prey. By landing on the decoy 3,4,5 the Mosquito will obtain a high concentration of DEET vapor disabling and interfering with her chemical sensors.
Chemicals such as citronella may confuse the mosquito's appetite. […] If the user moves or brushes the mosquito away this may be sufficient to put them far enough away from visual cues to attack again, reducing the chances that she will be able to find an authentic victim. The ampoules 7, 8 can be designed with a desired diffusion delivery rate of DEET and scents 10, 28 in sufficient volume to effectively deliver a steady chemical vapor for days.

[3] = highest dose (most concentrated DEET sold); cited from earlier work
[4] = applied on the skin; from the literature search; cited from earlier work

CCN(CC)C(=O)c1cccc(C)c1 [DEET, N,N-diethyl-3-methylbenzamide]
ability of mosquitoes to track and locate a human (mosquitoes [1]): still able to track and locate a human | mosquito behaviour toward the decoy (mosquitoes [2]): repeatably attacking the decoy | time DEET remains on the skin [3]: roughly 8 hours | fraction of DEET absorbed through the skin [4]: 6-15%

— patent US7988984B2, “Insect repellent and attractant and auto-thermostatic membrane vapor control delivery system” (Energy Related Devices, Inc., priority 2005, dated 2011)
